{"source": "patent US20210308138A1", "about": "“TISSUE TRANSGLUTAMINASE MODULATORS FOR MEDICINAL USE” (Aarhus Universitet, priority 2018, published 2021)", "system": "vascular smooth muscle cells (VSMCs) potassium currents", "experiment": "Whole-cell patch-clamp of K+ outward currents in isolated vascular smooth muscle cells", "assay_type": "cell-based, rat", "settings": "LDN-27219 3·10^−5 mol/L 12 min; VA-5 5·10^−5 mol/L one hour incubation", "method": "For isolation of VSMCs, rat mesenteric arteries were dissected as previously described, opened longitudinally and stored in ice-cold dissociation solution containing (mmol/L): 119 NaCl, 4.7 KCl, 1.18 KH2PO4, 1.17 MgSO4, 24.9 NaHCO3, 0.027 EDTA, and 11 glucose, pH=7.4. Arteries were then equilibrated during 10 min in a dissociation solution with bovine albumin serum (BSA; 1 mg/mL) at 37° C. and then exposed to the same solution supplemented with papain (0.5 mg/mL; Worthington Biochemical Corp., Lakewood, N.J., USA) and dithiothreitol (DTT; 1 mg/mL) at 37° C. for 8 min. Arteries were then washed in ice-cold dissociation solution and moved to dissociation solution containing BSA (1 mg/mL) and collagenase (0.7 mg/mL type F and 0.4 mg/mL type H; Worthington Biochemical Corp.) at 37° C. for 3 min. […]\nMembrane currents were recorded under the whole-cell configuration of the patch-clamp technique using an Axon Multiclamp 700A amplifier (Axon instruments, Molecular Devices, CA, USA). […] Current-voltage relations were determined using 600 ms voltage ramps from −100 to 160 mV and a holding potential (Vh) of −65 mV for SMCs.\nAmplitudes of K^+-outward currents were measured in control conditions and 12 min after the addition of LDN-27219 (3·10^−5 mol/L) to the extracellular solution by a perfusion system.", "data": [{"compound": "NNC(=O)CSc1nc2scc(-c3ccccc3)c2c(=O)n1-c1ccccc1", "note": "[LDN-27219]", "values": [{"measurement": "potassium currents compared to control conditions", "result": "potassium currents significantly bigger"}]}]}
